Laboratory results published in patent US20060223879A1, “Non-steroidal farnesoid x receptor modulators” (priority 2002, published 2006).
pEC50: −log10 of the molar value.

What follows are molecules tested against T1, FXR (Homo sapiens, UniProt Q96RI1) (assay: cell-based transcription assay, FXR responsive promoter linked to a luciferase reporter). Conditions: Tables 1-15; FXR activation, cell-based reporter assay; read-out: EC50.
T1 construct: using a full length FXR on a natural response element; expressed in transfected cells
T1 sequence (Q96RI1 1-486): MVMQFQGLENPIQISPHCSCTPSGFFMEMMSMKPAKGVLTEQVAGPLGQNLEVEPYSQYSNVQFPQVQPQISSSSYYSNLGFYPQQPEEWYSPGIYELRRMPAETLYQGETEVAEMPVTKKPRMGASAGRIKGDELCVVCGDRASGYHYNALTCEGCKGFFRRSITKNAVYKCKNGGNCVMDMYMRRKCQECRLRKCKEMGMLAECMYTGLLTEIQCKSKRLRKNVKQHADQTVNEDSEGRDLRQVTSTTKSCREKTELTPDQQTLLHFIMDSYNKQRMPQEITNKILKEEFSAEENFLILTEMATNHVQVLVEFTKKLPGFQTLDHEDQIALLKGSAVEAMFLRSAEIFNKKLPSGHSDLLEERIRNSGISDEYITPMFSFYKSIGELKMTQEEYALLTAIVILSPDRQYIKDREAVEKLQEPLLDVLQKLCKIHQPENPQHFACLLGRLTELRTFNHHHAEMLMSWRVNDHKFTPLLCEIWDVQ
Set-up: RE: scale not given here
Description: In addition to ensuring that only cell permeable compounds were selected for further optimization, this approach allows for the detection of FXR activation in a natural system (i.e., correct folding of the protein and in the presence of a complete compliment of co-activators and co-repressors).
The feasibility of creating high throughput screens (XIS) for ORs was explored using FXR as a candidate orphan receptor (OR) with a known activator, chenodeoxycholic acid (CDCA) as a ligand. The screen is based on the co-transfection of a full-length receptor with the reporter vector containing a natural hormone response element under a minimal eukaryotic promoter. […] Using this 384-well format, the high throughput screening (HTS) approach to FXR as a candidate OR was employed. […] A central question in the feasibility studies is whether this library is suitable for screening for nuclear receptor ligands. Samples of this library were first reformatted into a 384-well format and then subjected to the FXR cell-based assays described above and assessed for FXR-mediated transcriptional activity. Cells were exposed to approximately 10 μM of sample for 18 hrs prior to washing and luciferase analysis.
EC50 values were determined with Prism 3.0 software via the activity of the subject compound in the previously described cell based assay.
`COC(=O)/C=C/c1cccc(N(Cc2ccc(/C=C/c3ccc(F)cc3)cc2)C(=O)NC(C)C)c1` [Compound 206] showed a pEC50 of 6.46.
`COC(=O)C=Cc1cccc(N(Cc2ccc(C=Cc3ccccn3)cc2)C(=O)C(C)C)c1` [Compound 208] was tested, and the pEC50 was 6.51.
With `COC(=O)C=Cc1cccc(N(Cc2ccc(C=Cc3ccccn3)cc2)C(=O)NC(C)C)c1` [Compound 209] the pEC50 was 6.24.
Work on `COC(=O)C=Cc1cccc(N(Cc2ccc(C=Cc3scnc3C)cc2)C(=O)C(C)C)c1` [Compound 211] yielded a pEC50 of 6.64.
`COC(=O)C=Cc1cccc(N(Cc2ccc(C=Cc3scnc3C)cc2)C(=O)NC(C)C)c1` [Compound 212] was tested, and the pEC50 was 6.45.
In the case of `COC(=O)/C=C/c1cccc(N(Cc2ccc(-c3ccc(F)c(F)c3)cc2)C(=O)C2CCCCC2)c1` [Compound 213], the pEC50 was 7.14.
`COC(=O)/C=C/c1cccc(N(Cc2ccc(-c3ccc(F)c(F)c3)cc2)C(=O)C(C)C)c1` [Compound 214] showed a pEC50 of 6.60.
Work on `COC(=O)/C=C/c1cccc(N(Cc2ccc(-c3ccc(F)c(F)c3)cc2)C(=O)NC(C)C)c1` [Compound 215] yielded a pEC50 of 5.09.
For `COC(=O)/C=C/c1cccc(N(Cc2ccc(-c3ccc(SC)cc3)cc2)C(=O)C(C)C)c1` [Compound 216], the pEC50 was 7.29.
Work on `COC(=O)/C=C/c1cccc(N(Cc2ccc(-c3ccc(SC)cc3)cc2)C(=O)NC(C)C)c1` [Compound 217] yielded a pEC50 of 6.75.
Work on `COC(=O)/C=C/c1cccc(N(Cc2ccc(-c3ccccc3OC)cc2)C(=O)C2CCCCC2)c1` [Compound 218] yielded a pEC50 of 6.40.
Molecule `COC(=O)/C=C/c1cccc(N(Cc2ccc(-c3ccccc3OC)cc2)C(=O)C(C)C)c1` [Compound 219] has a pEC50 of 6.42.
`COC(=O)/C=C/c1cccc(N(Cc2ccc(-c3ccccc3OC)cc2)C(=O)NC(C)C)c1` [Compound 220] showed a pEC50 of 5.40.
`COC(=O)/C=C/c1cccc(N(Cc2ccc(-c3cc(Cl)cc(Cl)c3)cc2)C(=O)C(C)C)c1` [Compound 221] gave a pEC50 of 6.25.
`COC(=O)/C=C/c1cccc(N(Cc2ccc(-c3cc(Cl)cc(Cl)c3)cc2)C(=O)NC(C)C)c1` [Compound 222] gave a pEC50 of less than 5.00.
`COC(=O)/C=C/c1cccc(N(Cc2ccc(-c3cccc(OC)c3)cc2)C(=O)C(C)C)c1` [Compound 224] was tested, and the pEC50 was 7.14.
With `COC(=O)/C=C/c1cccc(N(Cc2ccc(-c3cccc(OC)c3)cc2)C(=O)NC(C)C)c1` [Compound 225] the pEC50 was 5.86.
For `CCOc1cccc(-c2ccc(CN(C(=O)C3CCCCC3)c3cccc(/C=C/C(=O)OC)c3)cc2)c1` [Compound 226], the pEC50 was 6.83.
`CCOc1cccc(-c2ccc(CN(C(=O)C(C)C)c3cccc(/C=C/C(=O)OC)c3)cc2)c1` [Compound 227] showed a pEC50 of 6.76.
In the case of `CCOc1cccc(-c2ccc(CN(C(=O)NC(C)C)c3cccc(/C=C/C(=O)OC)c3)cc2)c1` [Compound 228], the pEC50 was 5.63.
For `COC(=O)/C=C/c1cccc(N(Cc2ccc(-c3ccc(OC)cc3)cc2)C(=O)C2CCCCC2)c1` [Compound 229], the pEC50 was 7.05.
`COC(=O)/C=C/c1cccc(N(Cc2ccc(-c3ccc(OC)cc3)cc2)C(=O)C(C)C)c1` [Compound 230] gave a pEC50 of 7.01.

Same assay, conditions: Tables 1-15; RE not defined in the source
`COC(=O)/C=C/c1cccc(N(Cc2ccc(/C=C/c3c(Cl)cccc3Cl)cc2)C(=O)NC(C)C)c1` [Compound 179] showed an RE of 0.15.
`COC(=O)/C=C/c1cccc(N(Cc2ccc(/C=C/c3ccc(F)cc3)cc2)C(=O)C(C)C)c1` [Compound 205] was tested, and the RE was 1.19.
`COC(=O)/C=C/c1cccc(N(Cc2ccc(/C=C/c3ccc(F)cc3)cc2)C(=O)NC(C)C)c1` [Compound 206] showed an RE of 0.91.
Work on `COC(=O)C=Cc1cccc(N(Cc2ccc(C=Cc3ccccn3)cc2)C(=O)C(C)C)c1` [Compound 208] yielded an RE of 0.62.
`COC(=O)C=Cc1cccc(N(Cc2ccc(C=Cc3ccccn3)cc2)C(=O)NC(C)C)c1` [Compound 209] showed an RE of 0.68.
For `COC(=O)C=Cc1cccc(N(Cc2ccc(C=Cc3scnc3C)cc2)C(=O)C(C)C)c1` [Compound 211], the RE was 0.32.
With `COC(=O)C=Cc1cccc(N(Cc2ccc(C=Cc3scnc3C)cc2)C(=O)NC(C)C)c1` [Compound 212] the RE was 0.42.
In the case of `COC(=O)/C=C/c1cccc(N(Cc2ccc(-c3ccc(F)c(F)c3)cc2)C(=O)C2CCCCC2)c1` [Compound 213], the RE was 1.70.
With `COC(=O)/C=C/c1cccc(N(Cc2ccc(-c3ccc(F)c(F)c3)cc2)C(=O)C(C)C)c1` [Compound 214] the RE was 1.15.
For `COC(=O)/C=C/c1cccc(N(Cc2ccc(-c3ccc(F)c(F)c3)cc2)C(=O)NC(C)C)c1` [Compound 215], the RE was 0.23.
Molecule `COC(=O)/C=C/c1cccc(N(Cc2ccc(-c3ccc(SC)cc3)cc2)C(=O)C(C)C)c1` [Compound 216] has an RE of 0.98.
`COC(=O)/C=C/c1cccc(N(Cc2ccc(-c3ccc(SC)cc3)cc2)C(=O)NC(C)C)c1` [Compound 217] was tested, and the RE was 0.23.
Molecule `COC(=O)/C=C/c1cccc(N(Cc2ccc(-c3ccccc3OC)cc2)C(=O)C2CCCCC2)c1` [Compound 218] has an RE of 0.40.
Work on `COC(=O)/C=C/c1cccc(N(Cc2ccc(-c3ccccc3OC)cc2)C(=O)C(C)C)c1` [Compound 219] yielded an RE of 0.28.
`COC(=O)/C=C/c1cccc(N(Cc2ccc(-c3ccccc3OC)cc2)C(=O)NC(C)C)c1` [Compound 220] showed an RE of 0.09.
`COC(=O)/C=C/c1cccc(N(Cc2ccc(-c3cc(Cl)cc(Cl)c3)cc2)C(=O)C(C)C)c1` [Compound 221] showed an RE of 0.54.
Molecule `COC(=O)/C=C/c1cccc(N(Cc2ccc(-c3cc(Cl)cc(Cl)c3)cc2)C(=O)NC(C)C)c1` [Compound 222] has an RE of 0.10.
`COC(=O)/C=C/c1cccc(N(Cc2ccc(-c3cccc(OC)c3)cc2)C(=O)NC(C)C)c1` [Compound 225] was tested, and the RE was 0.41.
Work on `CCOc1cccc(-c2ccc(CN(C(=O)C3CCCCC3)c3cccc(/C=C/C(=O)OC)c3)cc2)c1` [Compound 226] yielded an RE of 1.37.
For `CCOc1cccc(-c2ccc(CN(C(=O)C(C)C)c3cccc(/C=C/C(=O)OC)c3)cc2)c1` [Compound 227], the RE was 1.03.
`CCOc1cccc(-c2ccc(CN(C(=O)NC(C)C)c3cccc(/C=C/C(=O)OC)c3)cc2)c1` [Compound 228] was tested, and the RE was 0.33.
Work on `COC(=O)/C=C/c1cccc(N(Cc2ccc(-c3ccc(OC)cc3)cc2)C(=O)C2CCCCC2)c1` [Compound 229] yielded an RE of 1.71.

Same assay, conditions: cell-based reporter assay
`COC(=O)/C=C/c1cccc(N(Cc2ccc(/C=C/c3ccc(F)cc3)cc2)C(=O)C(C)C)c1` [Compound 205] was tested, and the “FXR activation (in words)” value was “excellent activity”.
For `COC(=O)/C=C/c1cccc(N(Cc2ccc(-c3ccc(F)c(F)c3)cc2)C(=O)C2CCCCC2)c1` [Compound 213], the “FXR activation (in words)” value was “excellent activity”.
`COC(=O)/C=C/c1cccc(N(Cc2ccc(-c3ccc(SC)cc3)cc2)C(=O)C(C)C)c1` [Compound 216] was tested, and the “FXR activation (in words)” value was “excellent activity”.
`COC(=O)/C=C/c1cccc(N(Cc2ccc(-c3cccc(OC)c3)cc2)C(=O)C(C)C)c1` [Compound 224] was tested, and the “FXR activation (in words)” value was “excellent activity”.
In the case of `COC(=O)/C=C/c1cccc(N(Cc2ccc(-c3ccc(OC)cc3)cc2)C(=O)C2CCCCC2)c1` [Compound 229], the “FXR activation (in words)” value was “excellent activity”.
`COC(=O)/C=C/c1cccc(N(Cc2ccc(-c3ccc(OC)cc3)cc2)C(=O)C(C)C)c1` [Compound 230] was tested, and the “FXR activation (in words)” value was “excellent activity”.
